Measured values as given in patent US6806230B1, “Pyrimidine derivatives and herbicides containing them” (Kumiai Chemical Industry Co., Ltd., priority 1999, dated 2004).

What was measured:
Format in all cases: in vivo
monochoria (Mo) [1] = experiment: Test Example 1: herbicidal effects by flooded paddy field treatment; parameters: herbicidal effects, Mo (monochoria):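 0-5 growth inhibition grade; 5 = over 90%; 4 = 70-90%; 3 = 50-70%; 2 = 30-50%; 1 = 10-30%; 0 = under 10%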; conditions: dose 100 g active ingredient per 10 ares, examined on the 21st day after treatment, standards of Table 44
Method: (§1) In a 100 cm^2 plastic pot, paddy field soil was filled and paddled. Then, seeds of barnyard grass (Eo) and monochoria (Mo) were sown, and water was introduced to a depth of 3 cm. Next day, a wettable powder prepared in accordance with Formulation Example 1 was diluted with water and dropwise applied to the water surface. The dose was 100 g of the active ingredient per 10 ares. Thereafter, cultivation was carried out in a green house, and on the 21st day after the treatment, the herbicidal effects were examined in accordance with the standards as identified in Table 44.

barnyard grass (Eo) [2] = experiment: as above; parameters: herbicidal effects, Eo (barnyard grass):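 0-5 growth inhibition grade; 5 = over 90%; 4 = 70-90%; 3 = 50-70%; 2 = 30-50%; 1 = 10-30%; 0 = under 10%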; conditions: dose 100 g active ingredient per 10 ares, examined on the 21st day after treatment, standards of Table 44
Method: as §1

monochoria (Mo) [3] = experiment: Test Example 4: selectivity for a crop plant by flooded paddy field treatment; parameters: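 0-5 growth inhibition grade; 5 = over 90%; 4 = 70-90%; 3 = 50-70%; 2 = 30-50%; 1 = 10-30%; 0 = under 10%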; conditions: monochoria, dose 25 gai/10a, 21st day after treatment, index per Table 44
Method: as §1, with “pot, a” for “pot,”, “sown, and rice (Or) of second leaf stage was transplanted,” for “sown,”, “was 25” for “was 100”, “standards of” for “standards as identified in”

rice (Or) = experiment: as above; parameters: scale not given here; conditions: rice transplanted at second leaf stage, dose 25 gai/10a, 21st day after treatment, index per Table 44
Method: as §1, with “pot, a” for “pot,”, “sown, and rice (Or) of second leaf stage was transplanted,” for “sown,”, “was 25” for “was 100”, “standards of” for “standards as identified in”

barnyard grass (Eo) [4] = experiment: as above; parameters: scale not given here; conditions: barnyard grass, dose 25 gai/10a, 21st day after treatment, index per Table 44
Method: as §1, with “pot, a” for “pot,”, “sown, and rice (Or) of second leaf stage was transplanted,” for “sown,”, “was 25” for “was 100”, “standards of” for “standards as identified in”

barnyard grass (Ec) = experiment: Test Example 2: herbicidal effects by upland soil treatment; parameters: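 0-5 growth inhibition grade; 5 = over 90%; 4 = 70-90%; 3 = 50-70%; 2 = 30-50%; 1 = 10-30%; 0 = under 10%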; conditions: dose 100 g active ingredient per 10 ares, examined on the 21st day after treatment
Method: In a 80 cm^2 plastic pot, upland soil was filled, and seeds of barnyard grass (Ec) and green foxtail (Se) were sown and covered with soil. A wettable powder prepared in accordance with Formulation Example 1 was diluted with water and uniformly applied to the soil surface by means of a small size spray at a rate of 100 l per 10 ares, so that the dose of the active ingredient would be 100 g per 10 ares. Thereafter, cultivation was carried out in a green house, and on the 21st day after the treatment, the herbicidal effects were examined in accordance with the standards as identified in Table 44.

| Compound | herbicidal effects, Mo (monochoria) (monochoria (Mo) [1]) | herbicidal effects, Eo (barnyard grass) (barnyard grass (Eo) [2]) | Mo (herbicidal effect index) (monochoria (Mo) [3]) | Or (herbicidal effect index on crop) (rice (Or)) | Eo (herbicidal effect index) (barnyard grass (Eo) [4]) | Ec (herbicidal effects, index) (barnyard grass (Ec)) |
| --- | --- | --- | --- | --- | --- | --- |
| Cc1ccc(C(C)(C)C(=O)N(C)C(c2cncnc2C(F)(F)F)C(C)C)cc1 (racemic) [1-175] | 5 | 5 | 5 | 0 | 5 | – |
| CC(C)C(c1cncnc1C(F)(F)F)N(C)C(=O)CSc1ccc(Cl)cc1 (racemic) [1-183] | 5 | 5 | 5 | 0 | 5 | – |
| CC(c1cncnc1C(C)(C)C)N(C)C(=O)Cc1ccccc1 (racemic) [1-188] | 5 | 5 | 5 | 0 | 5 | – |
| CC(c1cncnc1C(C)(C)C)N(C)C(=O)Cc1ccc(F)cc1 (racemic) [1-189] | 5 | 5 | 5 | 0 | 5 | – |
| CC(C)C(c1cncnc1-c1ccccc1)N(C)C(=O)Cc1ccc(Cl)cc1 (racemic) [1-324] | 5 | 5 | 5 | 1 | 5 | – |
| Cc1ccc(CC(=O)N(C)C(c2cncnc2-c2ccccc2)C(C)C)cc1 (racemic) [1-325] | 5 | 5 | 5 | 1 | 5 | – |
| CCOC(=O)CN(C(=O)Cc1ccccc1)C(c1cncnc1C(F)(F)F)C(C)C (racemic) [1-476] | 5 | 5 | – | – | – | 5 |
| COc1ccc(C(c2cncnc2C(F)(F)F)N(C)C(=O)Cc2ccc(C)cc2)cc1 (racemic) [1-487] | 5 | 5 | 5 | 1 | 5 | – |
| COc1ccccc1C(c1cncnc1C(F)(F)F)N(C)C(=O)Cc1ccc(C)cc1 (racemic) [1-491] | 5 | 5 | 5 | 0 | 5 | – |
| CON=Cc1ncncc1C(C(C)C)N(C)C(=O)Cc1ccc(C)cc1 (racemic) [1-499] | 5 | 5 | – | – | – | 5 |
| CC(C)C(c1cncnc1C=NO)N(C)C(=O)Cc1ccc(Cl)cc1 (racemic) [1-502] | 5 | 5 | – | – | – | 4 |
| C=CCN(C(=O)Cc1ccccc1)C(c1cncnc1C(F)(F)F)C(C)C (racemic) [1-518] | 5 | 5 | – | – | – | 5 |
| CC(C)C(c1cncnc1C=O)N(C)C(=O)Cc1ccc(Cl)cc1 (racemic) [1-524] | 5 | 5 | – | – | – | 5 |
| Cc1ccccc1C(c1cncnc1C(F)(F)F)N(C)C(=O)Cc1ccccc1 (racemic) [1-550] | 5 | 5 | – | – | – | 5 |
| CN(C(=O)Cc1ccc(F)cc1)C(c1ccc(F)cc1F)c1cncnc1C(F)(F)F (racemic) [1-555] | 5 | 5 | – | – | – | 5 |
| C#CCN(C(=O)Cc1ccc(C)cc1)C(c1cncnc1CC)C(C)C (racemic) [1-561] | 5 | 5 | – | – | – | 5 |
| C#CCN(C(=O)Cc1ccc(Cl)cc1F)C(c1cncnc1C(F)(F)F)C(C)C (racemic) [1-615] | 5 | 5 | 5 | 1 | 5 | – |
| CC(C)C(c1cncnc1C(F)(F)Cl)N(C)C(=O)Oc1ccc([N+](=O)[O-])cc1 (racemic) [1-640] | 5 | 5 | – | – | – | 4 |
| CC(C)C(c1cncnc1C(F)(F)Cl)N(C)C(=S)Oc1ccccc1 (racemic) [1-641] | 5 | 5 | – | – | – | 5 |

| Compound | herbicidal effects, Mo (monochoria) (monochoria (Mo) [1]) | herbicidal effects, Eo (barnyard grass) (barnyard grass (Eo) [2]) | Mo (herbicidal effect index) (monochoria (Mo) [3]) | Or (herbicidal effect index on crop) (rice (Or)) | Eo (herbicidal effect index) (barnyard grass (Eo) [4]) | Ec (herbicidal effects, index) (barnyard grass (Ec)) |
| --- | --- | --- | --- | --- | --- | --- |
| CC(C)C(c1cncnc1C(F)(F)F)N(C)C(=O)Cc1cccs1 (racemic) [2-6] | 5 | 5 | – | – | – | 5 |
| CCN(C(=O)Cc1cccs1)C(c1cncnc1C(F)(F)F)C(C)C (racemic) [2-9] | 5 | 5 | – | – | – | 5 |
| CCN(C(=O)Cc1ccsc1)C(c1cncnc1C(F)(F)F)C(C)C (racemic) [2-10] | 5 | 5 | – | – | – | 5 |
| CN(C(=O)Cc1cccs1)C(c1cncnc1C(F)(F)F)C(C)(C)C (racemic) [2-13] | 5 | 5 | – | – | – | 5 |
| CN(C(=O)Cc1ccsc1)C(c1cncnc1C(F)(F)F)C(C)(C)C (racemic) [2-14] | 5 | 5 | – | – | – | 5 |
| CC(C)c1ncncc1C(C(C)C)N(C)C(=O)Cc1ccsc1 (racemic) [2-24] | 5 | 5 | – | – | – | 5 |
| CC(C)C(c1cncnc1C(F)(F)F)N(C)C(=O)COc1cncc(Cl)c1 (racemic) [2-44] | 5 | 5 | – | – | – | 5 |
| CC(C)CC(c1cncnc1C(F)(F)F)N(C)C(=O)Cc1ccsc1 (racemic) [2-52] | 5 | 5 | – | – | – | 5 |
| Cc1ccc(CC(=O)N(C)C(c2cncnc2C(F)(F)F)C2(C)CC2)s1 (racemic) [2-59] | 5 | 5 | – | – | – | 5 |
| CC(C)C(c1cncnc1C(F)(F)F)N(C)C(=O)N(C)c1ccsc1 (racemic) [2-63] | 5 | 5 | – | – | – | 5 |
| CC(C)C(c1cncnc1C(F)(F)F)N(C)C(=O)N(C)C1CCCCC1 (racemic) [2-72] | 5 | 5 | – | – | – | 5 |
| COCc1ncncc1C(C(C)C)N(C)C(=O)Cc1ccc(Cl)s1 (racemic) [2-77] | 5 | 5 | – | – | – | 5 |
| CN(C(=O)Cc1ccc(Cl)cc1F)C(c1cncnc1C(F)(F)F)C(C)(C)C (racemic) [Compound 1-249] | 5 | 5 | – | – | – | 5 |
| CC(C)c1ncncc1C(C(C)C)N(C)C(=O)Cc1ccc(Cl)cc1F (racemic) [Compound 1-254] | 5 | 5 | – | – | – | 5 |
| CN(C(=O)Cc1cccc(F)c1)C(c1cncnc1C(F)(F)F)C(C)(C)C (racemic) [Compound 1-265] | 5 | 5 | – | – | – | 5 |
| CN(C(=O)Cc1cccc(F)c1)C(c1ccccc1)c1cncnc1C(F)(F)F (racemic) [Compound 1-266] | 5 | 5 | – | – | – | 5 |
| CN(C(=O)Cc1ccc(F)cc1F)C(c1cncnc1C(F)(F)F)C(C)(C)C (racemic) [Compound 1-273] | 5 | 5 | – | – | – | 5 |
| CN(C(=O)Cc1ccc(F)cc1F)C(c1ccccc1)c1cncnc1C(F)(F)F (racemic) [Compound 1-274] | 5 | 5 | – | – | – | 5 |
